pKi: −log10 of the molar value.
Molecular target: T1, Prostaglandin D2 receptor 2 (Homo sapiens, UniProt Q9Y5Y4)
T1 sequence (Q9Y5Y4 whole entry): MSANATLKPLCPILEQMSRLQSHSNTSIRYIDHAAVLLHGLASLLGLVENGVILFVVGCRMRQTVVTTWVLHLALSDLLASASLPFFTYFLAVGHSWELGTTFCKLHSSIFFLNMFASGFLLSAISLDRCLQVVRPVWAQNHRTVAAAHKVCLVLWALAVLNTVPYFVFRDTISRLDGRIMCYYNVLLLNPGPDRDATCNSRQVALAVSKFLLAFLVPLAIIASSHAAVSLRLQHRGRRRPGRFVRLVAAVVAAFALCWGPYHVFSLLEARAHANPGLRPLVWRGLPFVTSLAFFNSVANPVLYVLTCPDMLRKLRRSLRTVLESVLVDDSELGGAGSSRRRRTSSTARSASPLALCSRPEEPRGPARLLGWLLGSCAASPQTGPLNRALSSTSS
Assay: Radioligand Binding Assay: Radioligand binding assay using CRTH2.

SMILES | pKi
Cc1c(Cc2cccnc2S(=O)(=O)c2ccc(F)cc2)c2cc(F)ccc2n1CC(=O)O | 8.70
Cc1c(Cc2cccnc2S(=O)(=O)c2ccc(Cl)cc2)c2cc(F)ccc2n1CC(=O)O | 8.15
